Converted amounts (≈) assume the structure as drawn.
Columns and labels:
[1] = %T>MIC in rabbit endocarditis model at 20 mg/kg, im administered as single dose measured after 8 hrs; assay type: functional; settings: route intramuscular
[2] = test system: Streptococcus pneumoniae; experiment: Antibacterial activity against Streptococcus pneumoniae; assay type: functional
[3] = test system: Staphylococcus; experiment: Antibacterial activity against Staphylococcus; assay type: functional
[4] = %T>MIC in rabbit endocarditis model at 20 mg/kg, im administered as single dose measured after 12 hrs; assay type: functional; settings: route intramuscular
[5] = test system: Staphylococcus; experiment: Antibacterial activity against Staphylococcus infected in human; assay type: functional
[6] = %T>MIC in Staphylococcus aureus-infected neutropenic mouse model; assay type: functional
[7] = %T>MIC in gram negative bacteria-infected neutropenic mouse model; assay type: functional
[8] = %T>MIC in Streptococcus pneumoniae-infected neutropenic mouse model; assay type: functional
[9] = %T>MIC human infected with Staphylococcus at 600 mg. im administered every 12 hrs; settings: route intramuscular

Which “fT>MIC” value [1] does the source give for `CCO/N=C(\C(=O)N[C@@H]1C(=O)N2C(C(=O)[O-])=C(Sc3nc(-c4cc[n+](C)cc4)cs3)CS[C@H]12)c1nsc(NP(=O)(O)O)n1` [CEFTAROLINE FOSAMIL] here?
Its value is 46.3%.

What about the MIC90 [2] of the same compound?
Its MIC90 is at most 2 µg/mL.

What about the MIC90 [3] of the same compound?
Its MIC90 is at most 2 µg/mL.

And the “fT>MIC” value [4]?
Its value is 30.9%.

And the MIC [5]?
Its MIC is 0.12 µg/mL (≈ 0.175 µM).

What about the “fT>MIC” value [6] of the same compound?
Its value is 26%.

And the “fT>MIC” value [7]?
Its value is 32%.

What about the “fT>MIC” value [8] of the same compound?
The value was 39%.

And the “fT>MIC” value [9]?
The value was 64.65%.
